Laboratory results reported in the supplement of paper PMC10307832.

Legend:
Experiment in all cases: relative viability (nuclei count vs DMSO), 5 days (fraction); higher = more cells survive
[1] = compound: CC1=CC=C(C=C1)C(=O)CN2C3=C(CCCC3)SC2=N [Pifithrin_alpha] + CS(=O)(=O)CCNCc1ccc(-c2ccc3ncnc(Nc4ccc(OCc5cccc(F)c5)c(Cl)c4)c3c2)o1 [Lapatinib] (partner 2 µM)
Procedure, shortened: (§1)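 Relative viability was taken as the ratio of nuclei in treated wells to nuclei in vehicle wells. Lung cancer cell lines in 1536-well plates received compounds by pin tool one day after seeding, either one drug alone or a fixed anchor-drug dose plus five library-drug doses (not always all listed) in √10 steps. Nuclei were counted on 4× images after 5 days of treatment, and values are medians of duplicate plates.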

[2] = compound: CC1=CC=C(C=C1)C(=O)CN2C3=C(CCCC3)SC2=N [Pifithrin_alpha] + NC(=O)Nc1cc(-c2cccc(F)c2)sc1C(=O)N[C@H]1CCCNC1 [AZD7762] (partner 0.2 µM)
Procedure, shortened: as §1

[3] = compound: Nc1nc(Nc2ccc3c(c2)CC[C@@H](N2CCCC2)CC3)nn1-c1cc2c(nn1)-c1ccccc1CCC2 [Bemcentinib] + CC(=O)Nc1cccc(-n2c(=O)n(C3CC3)c(=O)c3c(Nc4ccc(I)cc4F)n(C)c(=O)c(C)c32)c1 [Trametinib] (partner 0.02 µM)
Procedure, shortened: as §1

[4] = compound: Nc1nc(Nc2ccc3c(c2)CC[C@@H](N2CCCC2)CC3)nn1-c1cc2c(nn1)-c1ccccc1CCC2 [Bemcentinib] + O=C(c1cc(Cc2n[nH]c(=O)c3ccccc23)ccc1F)N1CCN(C(=O)C2CC2)CC1 [Olaparib] (partner 8 µM)
Procedure, shortened: as §1

Cell Line	relative viability ([1]; first compound 1 µM)	relative viability ([1]; first compound 3.162 µM)	relative viability ([1]; first compound 10 µM)	relative viability ([1]; first compound 31.62 µM)	relative viability ([1]; first compound 100 µM)	relative viability ([2]; first compound 1 µM)	relative viability ([2]; first compound 3.162 µM)	relative viability ([2]; first compound 10 µM)	relative viability ([2]; first compound 31.62 µM)	relative viability ([2]; first compound 100 µM)	relative viability ([3]; first compound 0.04 µM)	relative viability ([3]; first compound 0.1265 µM)	relative viability ([3]; first compound 0.4 µM)	relative viability ([3]; first compound 1.265 µM)	relative viability ([3]; first compound 4 µM)	relative viability ([4]; first compound 0.04 µM)	relative viability ([4]; first compound 0.1265 µM)	relative viability ([4]; first compound 0.4 µM)	relative viability ([4]; first compound 1.265 µM)	relative viability ([4]; first compound 4 µM)
201T	0.959	0.728	0.744	0.83	0.689	0.669	0.773	0.781	0.461	0.627	0.731	0.778	0.744	0.743	0.734	0.872	0.874	0.934	0.897	0.818
A549	1.12	1	0.838	0.766	0.739											0.264	0.279	0.323	0.167	0.342
A-427	0.981	0.877	0.99	0.845	1.18	0.692	0.675	0.666	0.644	0.672	0.711	0.696	0.812	0.773	0.668	0.737	0.783	0.853	0.72	0.71
ABC-1	1.36	1.24	0.923		1.36		0.977	0.8	0.726	0.679						0.627	0.843	0.855	0.774	0.792
BEN	0.522	0.769	0.686	0.733	0.873	0.608	0.753	0.722	0.533	0.656	1.01	1.18	1.21	1.04	1.03	1.05	1.25	1.02	1.19	1.18
CAL-12T	0.624	0.614	0.696	0.441	0.447	0.548	0.658	0.62	0.401	0.476	0.347	0.321	0.302	0.339	0.372	0.705	0.751	0.716	0.77	0.698
COR-L23	1.05	1.28	1.06		0.926						0.569	0.696	0.66	0.641	0.658	0.38	0.314	0.371	0.328	0.344
COR-L 105	0.343	0.395	0.336	0.321	0.533						0.453	0.48	0.458	0.39	0.377	0.635	0.762	0.752	0.737	0.64
Calu-6	1.02	1.03	0.986	0.675	1.07											0.525	0.573	0.614	0.535	0.57
ChaGo-K-1						0.905	0.947	0.872	0.683	0.866	0.911	0.945	0.939	0.877	0.902	0.403	0.371	0.467	0.438	0.423
EBC-1	0.21	0.225	0.192	0.213	0.165											0.773	0.73	0.693	0.691	0.754
EKVX	0.167	0.16	0.139	0.181	0.14	0.685	0.562	0.592	0.463	0.424	0.32	0.372	0.351	0.491	0.34	0.88	0.852	0.829	1.09	0.939
EMC-BAC-2	0.87	0.905	0.864	0.623	0.928	1.09	1.09	0.954	0.82	1.04	0.874	0.896	0.873	0.897	0.967	0.491	0.511	0.488	0.468	0.482
EPLC-272H		0.8	1.05	0.629	0.739		0.233	0.212	0.196	0.215	0.268	0.287	0.329	0.289	0.295	0.753	1.02	0.975	0.833	0.761
H3255	0.13	0.208	0.267	0.244	0.192	0.716	0.95	0.801	0.683	0.637		0.749	0.696	0.674	0.706	0.533	0.589	0.537	0.599	0.491
IA-LM	0.624	0.788	0.498	0.407	0.322											0.799	0.913	0.885	0.859	0.89
